Experimental data reported in PubChem BioAssay AID1361 (SRMLSC, 2008).
Calls of active or inactive are those of the source. No rule for the calls is given here.

Assay: mitochondrial fusion inhibitors, confirmation, cell-based, chemical genetic, wild-type and mutant (AID 1361)
Conditions: Cell-based mitochondrial fusion phenotype, imaging
[1] = mutant cells, measured here: mutant cell line IC50

Structure (SMILES)	IC50 (WT cells)	IC50 [1] [µM]
c1ccc2c(c1)nc(CN1CCOCC1)n1c3ccccc3nc21	> 25 µM (inactive)	> 25
COc1ccccc1-c1cc(C(F)(F)F)nc(NCc2cccs2)n1	11.2 µM	> 25
COc1nc(SC)nc(Cl)c1Cc1ccc(OC(C)C)cc1	24.1 µM	> 25
COc1cccc(-c2cnc(OC(C)(C)C)nc2OC(C)(C)C)c1	24 µM	> 25
COc1ccccc1NC(=O)c1cccc(NC(=O)c2ccco2)c1	> 25 µM (inactive)	> 25
Cc1ccccc1NC(=O)CNc1ccccc1N1CCCCC1	> 25 µM (inactive)	> 25
CC1CCN(c2nc(-c3cccnc3)nc3scc(-c4ccccc4)c23)CC1	13.1 µM	> 25
CC1(c2ccc([N+](=O)[O-])cc2)CC(C)(C)N(C(=O)c2ccccc2)c2ccccc21 (stereo not given)	1.71 µM	4.04
COc1ccc(NC(=S)N(CCCN2CCCC2)Cc2cccn2Cc2ccc(Cl)cc2)cc1Cl	10.9 µM	23.2
N#Cc1nc(-c2ccco2)oc1NCc1ccc(F)cc1	> 25 µM (inactive)	> 25
CCOP(=O)(OCC)C(Nc1cccc(C(F)(F)F)c1)c1ccc(Br)cc1 (stereo not given)	16.3 µM	> 25
CCN(CC)C(=O)C1CC(=O)N(c2ccc(F)c(Cl)c2)C1 (stereo not given)	> 25 µM (inactive)	> 25
COc1ccc(Nc2nc(-c3ccccc3)c3ccccc3n2)cc1	10.7 µM	> 25
O=C(OCC(=O)N1CCN(C(=O)c2ccco2)CC1)c1cn(-c2ccccc2)nc1-c1ccccc1	13.1 µM	16.3
COC(=O)c1c(N)n(Cc2ccc(OC)cc2)c2nc3ccccc3nc12	> 25 µM (inactive)	> 25
O=C(Nc1ccccc1)Nc1cc(OCC(F)(F)F)cc(OCC(F)(F)F)c1	16.3 µM	> 25
CCOC(=O)c1c(C)n(-c2ccc(C)cc2)c2ccc(OCC(O)CNCC3CCCO3)cc12 (stereo not given)	15 µM	> 25
Cc1ccccc1NS(=O)(=O)c1cc(C(=O)N2CCc3ccccc3C2)ccc1C	> 25 µM (inactive)	> 25
COc1ccc(O[C@H]2C=C[C@@H](c3ccccc3)O[C@@H]2COC(=O)CC/C(C)=N/O[C@@H](C)CN2CCCCc3nc(C)c(C)cc32)cc1	12.1 µM	> 25
COCCNC(=O)CC(NS(=O)(=O)c1ccc(C)cc1)c1ccco1 (stereo not given)	> 25 µM (inactive)	> 25

Structure (SMILES)	IC50 (WT cells)	IC50 [1] [µM]
CC(=O)N1CCC(O)(c2cccc(C(F)(F)F)c2)CC1	> 25 µM (inactive)	> 25
C(=N\Nc1nc(Nc2ccccc2)nc(N2CCCCC2)n1)/c1ccco1	22.5 µM	> 25
CCC(=O)Nc1ccc(Br)c(Cl)c1	> 25 µM (inactive)	> 25
CC(C)N(Cc1nc(-c2ccc(Cl)cc2)no1)C(=O)CCC1CCCC1	13.7 µM	> 25
Nc1c(C(=O)NC2CCCC2)sc2nc(-c3cccs3)ccc12	> 25 µM (inactive)	> 25
CCOC1(OCC)C(c2ccc(Cl)cc2)C(C#N)(C#N)C1(OCC)OCC (stereo not given)	11.5 µM	> 25
CCCOC(=O)c1ccc(Oc2cn[nH]c2-c2ccc(OC)cc2O)cc1	11.3 µM	21.9
Cc1nn(-c2ccccc2)c(C)c1C(=O)OCC(=O)N1CCN(S(=O)(=O)c2ccccc2)CC1	> 25 µM (inactive)	> 25
COc1ccc(-c2nc3ccccc3s2)cc1O	> 25 µM (inactive)	> 25
Cc1cccc(-n2ncc3c(N4CC(C)CC(C)C4)ncnc32)c1 (stereo not given)	14.6 µM	20
CCOC(=O)C(C)c1nc2ccccc2[nH]c1=O (stereo not given)	> 25 µM (inactive)	> 25
CCc1nn(C(C)C(=O)NCCN2CCN(c3cccc(C)c3C)CC2)c(=O)c2cc3occc3n12 (stereo not given)	> 25 µM (inactive)	> 25
O=C(CCc1nc(-c2ccccc2)no1)NCCc1ccccc1	> 25 µM (inactive)	> 25
CN(C)C(=O)CSc1nnc(CCCCCNC(=O)OC(C)(C)C)o1	> 25 µM (inactive)	> 25
Cc1ccc(S(=O)(=O)c2c(C)nn(C(C)(C)C)c2OC(=O)CC(C)C)cc1	22.5 µM	> 25
CCOC(=O)c1c(-c2cccs2)csc1NC(=O)C(C)(C)C	24.5 µM	> 25
COC(=O)C1=CN(CCOC23CC4CC(CC(C4)C2)C3)C=C(C(=O)OC)C1c1ccsc1	17 µM	> 25
CCOC(=O)c1sc(/N=C/c2c(C)[nH]n(-c3ccccc3)c2=O)c(C#N)c1C	> 25 µM (inactive)	> 25
Cc1nn(C(C)C(=O)NCC2CCCO2)c(=O)c2cc3occc3n12 (stereo not given)	> 25 µM (inactive)	> 25
COc1ccccc1NC1=C(Cl)C(=O)N(C2CCCCC2)C1=O	23.8 µM	> 25

Structure (SMILES)	IC50 (WT cells)	IC50 [1] [µM]
CCN(CC)CCNC(=O)Cn1nc(Cc2ccccc2)c2ccccc2c1=O	> 25 µM (inactive)	> 25
CCCC1(CCC)NC(=O)N(CC(=O)Nc2cccc(OC)c2)C1=O	> 25 µM (inactive)	> 25
COC(=O)c1ccccc1NC(=O)CNc1cc(Cl)ccc1N1CCOCC1	24.7 µM	> 25
CCOc1ccc(NC(=O)CSc2nnc(-c3ccco3)n2C)cc1	> 25 µM (inactive)	> 25
O=C(c1cc(-c2ccc(Cl)cc2)n(-c2ccc(Cl)c(Cl)c2)n1)N1CCOCC1	16.9 µM	> 25
CCCCCC[n+]1c(-c2ccccc2)csc1Nc1ccccc1	4.95 µM	14.8
C/C(=N\O)c1ccc2c3c([nH]c2c1)CCCC3	> 25 µM (inactive)	> 25
O=c1c2cn[nH]c2nc(SCc2c(F)cccc2F)n1-c1ccc(Cl)cc1	> 25 µM (inactive)	> 25
Cc1cc(Oc2ccc(C(C)(C)C)cc2)nc(N2CCOCC2)n1	19.9 µM	> 25
Cc1ccc2c(c1)c1c(n2CC(O)Cn2nc(C)c(Br)c2C)CCCC1 (stereo not given)	12.3 µM	22.8
COc1cccc(C2Nc3c(F)cc(Br)cc3C3C=CCC32)c1OC (stereo not given)	14.9 µM	> 25
Cc1nn(Cc2ccccc2Cl)c(C)c1NC(=O)NC12CC3CC(CC(C3)C1)C2	> 25 µM (inactive)	> 25
CCOC(=O)Cc1c(Sc2ccccc2)c2cc(C)ccc2n1C	12.3 µM	> 25
CC1CCN(c2nc(Cl)nc(Nc3ccc([N+](=O)[O-])cc3)n2)CC1	7.41 µM	> 25
CCOc1ccc2c(c1)C(C)=CC(C)(C)N2S(=O)(=O)c1ccc(C)cc1	13.7 µM	23.2
CCOc1ccc(NCc2nnc(SCc3ccc(Cl)cc3)n2-c2ccccc2)cc1	> 25 µM (inactive)	> 25
Cc1cc(C)n(-c2nc(C)nc3c2cnn3-c2ccccc2)n1	> 25 µM (inactive)	> 25
O=C(COC(=O)Cc1c(Cl)cccc1Cl)Nc1ccccc1-c1ccccc1	13.3 µM	> 25
N#Cc1sc2nc(C3CC3)cc(-c3ccc(Cl)cc3)c2c1N	11.7 µM	19.5
Cc1oc(-c2ccccc2Cl)nc1CN1C(=O)CN=C(c2ccccc2)c2ccccc21	20.5 µM	> 25
